These results are taken from ChEMBL document CHEMBL4513161, “CO-ADD screening of MMV (CH) - Pandemic Response Box” (2021).

One assay concerns HEK293. Briefly: cells. As to conditions: Homo sapiens, ATCC CRL1573, HEK293; ASSAY_TEST Inhibition of Cell Viability; detection method Resazurin; Fluorescence (ex560/em590); MEDIA DMEM with 10% FBS; plate type 384well; TC; CORNING #3712; time 18 hr; read-out: CC50. In kind it is functional, Homo sapiens, ATCC CRL1573.
Assay [1] concerns Pseudomonas aeruginosa. Briefly: Antibacterial activity against Pseudomonas aeruginosa PAO397 [PAO1 d(mexAB-oprM) d(mexCD-oprJ) d(mexEF-oprN) d(mexJKL) d(mexXY) d(opmH)] (CO-ADD:GN_211); MIC in CAMBH media using NBS plates, by OD(600). The following applies: ASSAY_TEST Inhibition of Bacterial Growth, detection method Absorption (OD600), MEDIA CAMHB, plate type 384well, CORNING #3640, time 18 hr. In kind it is functional.

In a further assay the test system is Staphylococcus aureus. The assay can be described thus: microbe, parasite or virus in culture. As to conditions: ATCC 43300, 18 h, ASSAY_TEST Inhibition of Bacterial Growth, detection method Absorption (OD600), MEDIA CAMHB, plate type 384well, NBS, CORNING #3640.
The test system of the next assay is Escherichia coli. Briefly: microbe, parasite or virus in culture. The following applies: ATCC 25922, 18 h, ASSAY_TEST Inhibition of Bacterial Growth, detection method Absorption (OD600), MEDIA CAMHB, plate type 384well, NBS, CORNING #3640.
In the next assay the test system is Klebsiella pneumoniae. The assay can be described thus: microbe, parasite or virus in culture. As to conditions: ATCC 700603, 18 h, ASSAY_TEST Inhibition of Bacterial Growth, detection method Absorption (OD600), MEDIA CAMHB, plate type 384well, NBS, CORNING #3640.
Assay [2] deals with Pseudomonas aeruginosa. The assay can be described thus: microbe, parasite or virus in culture. As to conditions: ATCC 27853, 18 h, ASSAY_TEST Inhibition of Bacterial Growth, detection method Absorption (OD600), MEDIA CAMHB, plate type 384well, NBS, CORNING #3640.
A further assay has as its system Acinetobacter baumannii. The assay can be described thus: microbe, parasite or virus in culture. As to conditions: ATCC 19606, 18 h, ASSAY_TEST Inhibition of Bacterial Growth, detection method Absorption (OD600), MEDIA CAMHB, plate type 384well, NBS, CORNING #3640.
The next assay has as its system Candida albicans. The assay can be described thus: microbe, parasite or virus in culture. The following applies: ATCC 90028, ASSAY_TEST Inhibition of Fungal Growth, detection method Absorption (OD530), plate type 384well, NBS, CORNING #3640.

Converted amounts (≈) assume the structure as drawn. Counter-ions that a name gives are not always drawn.

What is called CC50 is the concentration giving 50% cytotoxicity.

On to `CCc1oc2ccccc2c1C(=O)c1ccc(O)cc1` [BENZARONE], for which the half-maximal cytotoxic concentration (CC50) with HEK293 is above 20 µM. The MIC in the assay with Pseudomonas aeruginosa [1], in the assay with Cryptococcus neoformans, in the assay on Staphylococcus aureus, against Escherichia coli, in the assay with Klebsiella pneumoniae and in the assay with Pseudomonas aeruginosa [2] was above 20 µM in each case. Also, the MIC against Acinetobacter baumannii and against Candida albicans was above 20 µM throughout.

Turning to `C[C@@]1(O)[C@H](O)[C@@H](CO)O[C@H]1n1ccc2c(N)ncnc21` [BETA-2'-C-METHYL-7-DEAZA-ADENOSINE], the CC50 with HEK293 is above 20 µM. Besides, the MIC in the assay on Pseudomonas aeruginosa [1], with Cryptococcus neoformans, against Staphylococcus aureus, in the assay with Escherichia coli, against Klebsiella pneumoniae and with Pseudomonas aeruginosa [2] was above 20 µM throughout. The MIC against Acinetobacter baumannii and against Candida albicans was above 20 µM in each case.

Consider `O=C(O)CCNC(=O)c1ccccc1` [BETAMIPRON], for which the CC50 with HEK293 is above 20 µM. Moreover, the MIC against Pseudomonas aeruginosa [1], in the assay with Cryptococcus neoformans, against Staphylococcus aureus, with Escherichia coli, with Klebsiella pneumoniae and against Pseudomonas aeruginosa [2] was above 20 µM in each case. For the same molecule, the MIC against Acinetobacter baumannii and with Candida albicans was above 20 µM in each case.

Take `C=C(C)[C@@H]1CC[C@]2(C(=O)O)CC[C@]3(C)[C@H](CC[C@@H]4[C@@]5(C)CC[C@H](O)C(C)(C)[C@@H]5CC[C@]43C)[C@@H]12` [BETULINIC ACID]: the CC50 in the assay with HEK293 was above 20 µM. For the same molecule, the MIC against Pseudomonas aeruginosa [1], in the assay on Cryptococcus neoformans, in the assay on Staphylococcus aureus, against Escherichia coli, in the assay with Klebsiella pneumoniae and in the assay with Pseudomonas aeruginosa [2] was above 20 µM throughout. Also, the MIC with Acinetobacter baumannii and against Candida albicans was above 20 µM throughout.

`CC[C@H](NC(=O)[C@H](C)NC)C(=O)N1C[C@@H](O)C[C@H]1Cc1c(-c2[nH]c3cc(F)ccc3c2C[C@@H]2C[C@H](O)CN2C(=O)[C@H](CC)NC(=O)[C@H](C)NC)[nH]c2cc(F)ccc12` [BIRINAPANT]: the CC50 in the assay with HEK293 was above 20 µM. In addition, the MIC with Pseudomonas aeruginosa [1], against Cryptococcus neoformans, against Staphylococcus aureus, with Escherichia coli, in the assay with Klebsiella pneumoniae and in the assay with Pseudomonas aeruginosa [2] was above 20 µM in each case. Further, the MIC in the assay with Acinetobacter baumannii and in the assay on Candida albicans was above 20 µM in each case.

With `CC(C)(C)NC(=O)N[C@H](C(=O)N1C[C@H]2[C@@H]([C@H]1C(=O)NC(CC1CCC1)C(=O)C(N)=O)C2(C)C)C(C)(C)C` (stereo partly specified) [BOCEPREVIR], in the assay on HEK293, the CC50 was above 20 µM. Besides, the MIC against Pseudomonas aeruginosa [1], against Cryptococcus neoformans, in the assay on Staphylococcus aureus, against Escherichia coli, with Klebsiella pneumoniae and in the assay on Pseudomonas aeruginosa [2] was above 20 µM each time. For the same molecule, the MIC with Acinetobacter baumannii and in the assay with Candida albicans was above 20 µM in each case.

Take `Nc1nc(=O)c(Br)c(-c2ccccc2)[nH]1` [BROPIRIMINE]: the CC50 in the assay on HEK293 was above 20 µM. For the same molecule, the MIC in the assay with Pseudomonas aeruginosa [1], in the assay on Cryptococcus neoformans, in the assay with Staphylococcus aureus, in the assay with Escherichia coli, with Klebsiella pneumoniae and against Pseudomonas aeruginosa [2] was above 20 µM each time. The MIC in the assay on Acinetobacter baumannii and against Candida albicans was above 20 µM in each case.

`CN(Cc1ccc(C(C)(C)C)cc1)Cc1cccc2ccccc12` [BUTENAFINE HYDROCHLORIDE]: in the assay on HEK293, the CC50 is above 20 µM. Moreover, the MIC with Pseudomonas aeruginosa [1] was above 20 µM; in the assay on Cryptococcus neoformans it was 5 µM; in the assay on Staphylococcus aureus it was above 20 µM; in the assay on Escherichia coli, above 20 µM; in the assay on Klebsiella pneumoniae, above 20 µM; in the assay on Pseudomonas aeruginosa [2], above 20 µM. Also, the MIC against Acinetobacter baumannii and against Candida albicans was above 20 µM throughout.

Regarding `COC(=O)Nc1nc2ccccc2[nH]1` [CARBENDAZIM], the CC50 in the assay with HEK293 turned out to be 15.5 µM. For the same molecule, the MIC in the assay on Pseudomonas aeruginosa [1], in the assay with Cryptococcus neoformans, against Staphylococcus aureus, against Escherichia coli, against Klebsiella pneumoniae and against Pseudomonas aeruginosa [2] was above 20 µM throughout. Further, the MIC in the assay with Acinetobacter baumannii and in the assay on Candida albicans was above 20 µM in each case.

`CO/N=C(\C(=O)N[C@@H]1C(=O)N2C(C(=O)OCOC(=O)C(C)(C)C)=C(/C=C\c3scnc3C)CS[C@H]12)c1csc(N)n1` [CEFDITOREN PIVOXIL]: the half-maximal cytotoxic concentration (CC50) in the assay on HEK293 was above 20 µM. In addition, the MIC in the assay on Pseudomonas aeruginosa [1], against Cryptococcus neoformans, in the assay with Staphylococcus aureus, in the assay on Escherichia coli, in the assay with Klebsiella pneumoniae and against Pseudomonas aeruginosa [2] was above 20 µM throughout. Moreover, the MIC with Acinetobacter baumannii and in the assay on Candida albicans was above 20 µM in each case.

With `Cc1c(N)cccc1Cn1ccc(OCCc2cccs2)cc1=O` [CG-400549], the CC50 with HEK293 was above 20 µM. In addition, the MIC against Pseudomonas aeruginosa [1] was above 20 µM; with Cryptococcus neoformans, above 20 µM; against Staphylococcus aureus, 0.625 µM (≈ 0.213 µg/mL); with Escherichia coli it was above 20 µM; in the assay on Klebsiella pneumoniae it was above 20 µM; against Pseudomonas aeruginosa [2] it was above 20 µM. Also, the MIC against Acinetobacter baumannii and with Candida albicans was above 20 µM throughout.

`CCN(CC)CCCC(C)Nc1ccnc2cc(Cl)ccc12` (stereo unspecified) [CHLOROQUINE]: in the assay with HEK293, the CC50 is above 20 µM. In addition, the MIC against Pseudomonas aeruginosa [1], in the assay on Cryptococcus neoformans, with Staphylococcus aureus, in the assay with Escherichia coli, against Klebsiella pneumoniae and in the assay with Pseudomonas aeruginosa [2] was above 20 µM each time. The MIC against Acinetobacter baumannii and against Candida albicans was above 20 µM throughout.

As for `Cc1cc(C2CCCCC2)n(O)c(=O)c1` [CICLOPIROX], in the assay on HEK293, the CC50 was 3.98 µM. Also, the MIC with Pseudomonas aeruginosa [1] was above 20 µM; with Cryptococcus neoformans, 5 µM (≈ 1.04 µg/mL); in the assay with Staphylococcus aureus, above 20 µM; against Escherichia coli, above 20 µM; with Klebsiella pneumoniae, above 20 µM; against Pseudomonas aeruginosa [2], above 20 µM. The MIC in the assay on Acinetobacter baumannii is above 20 µM; with Candida albicans, 5 µM (≈ 1.04 µg/mL).

On to `O=C(O)c1cc(-c2ccccc2)nc2ccccc12` [CINCHOPHEN], for which the CC50 with HEK293 was above 20 µM. For the same molecule, the MIC with Pseudomonas aeruginosa [1], in the assay with Cryptococcus neoformans, against Staphylococcus aureus, in the assay with Escherichia coli, in the assay with Klebsiella pneumoniae and against Pseudomonas aeruginosa [2] was above 20 µM each time. Moreover, the MIC with Acinetobacter baumannii and against Candida albicans was above 20 µM each time.

With `Clc1ccc(Cn2c(CN3CCCC3)nc3ccccc32)cc1` [CLEMIZOLE], the CC50 in the assay with HEK293 was above 20 µM. In addition, the MIC against Pseudomonas aeruginosa [1], in the assay on Cryptococcus neoformans, against Staphylococcus aureus, against Escherichia coli, in the assay with Klebsiella pneumoniae and against Pseudomonas aeruginosa [2] was above 20 µM in each case. For the same molecule, the MIC against Acinetobacter baumannii and against Candida albicans was above 20 µM throughout.

As for `CCC[C@@H]1C[C@@H](C(=O)N[C@@H]([C@H]2O[C@H](SC)[C@H](O)[C@@H](O)[C@H]2O)[C@H](C)Cl)N(C)C1` [CLINDAMYCIN HYDROCHLORIDE], the cytotoxic concentration (CC50) in the assay with HEK293 is above 20 µM. Moreover, the MIC is 20 µM with Pseudomonas aeruginosa [1]; above 20 µM against Cryptococcus neoformans; above 20 µM in the assay with Staphylococcus aureus; above 20 µM against Escherichia coli; above 20 µM in the assay with Klebsiella pneumoniae; above 20 µM with Pseudomonas aeruginosa [2]. Further, the MIC against Acinetobacter baumannii and with Candida albicans was above 20 µM in each case.

With `Cc1onc(-c2ccccc2Cl)c1C(=O)N[C@@H]1C(=O)N2[C@@H]1SC(C)(C)[C@@H]2C(=O)O` [CLOXACILLIN], the CC50 in the assay on HEK293 was above 20 µM. Further, the MIC is above 20 µM in the assay on Pseudomonas aeruginosa [1]; above 20 µM against Cryptococcus neoformans; 1.25 µM (≈ 0.545 µg/mL) in the assay on Staphylococcus aureus; above 20 µM with Escherichia coli; above 20 µM in the assay with Klebsiella pneumoniae; above 20 µM against Pseudomonas aeruginosa [2]. The MIC against Acinetobacter baumannii and against Candida albicans was above 20 µM in each case.

As for `COc1ccccc1CN[C@H]1C2CCN(CC2)[C@H]1C(c1ccccc1)c1ccccc1` [CP-96345], the CC50 in the assay with HEK293 was above 20 µM. Moreover, the MIC against Pseudomonas aeruginosa [1], in the assay on Cryptococcus neoformans, against Staphylococcus aureus, in the assay with Escherichia coli, against Klebsiella pneumoniae and in the assay with Pseudomonas aeruginosa [2] was above 20 µM each time. Further, the MIC in the assay with Acinetobacter baumannii and against Candida albicans was above 20 µM throughout.

`O=c1cc(NCCCN[C@@H]2CCOc3c(Br)cc(Br)cc32)[nH]c2ccsc12` [CRS-3123]: the CC50 in the assay with HEK293 is above 20 µM. Besides, the MIC is 20 µM (≈ 10.3 µg/mL) in the assay with Pseudomonas aeruginosa [1]; above 20 µM in the assay on Cryptococcus neoformans; 0.312 µM (≈ 0.16 µg/mL) with Staphylococcus aureus; above 20 µM in the assay on Escherichia coli; above 20 µM in the assay on Klebsiella pneumoniae; above 20 µM in the assay with Pseudomonas aeruginosa [2]. Further, the MIC in the assay with Acinetobacter baumannii and in the assay with Candida albicans was above 20 µM throughout.
